Measurements from BindingDB's records for patent US20250051327 (Exscientia AI, 2025).

Each molecule was assayed against T1, Mucosa-associated lymphoid tissue lymphoma translocation protein 1 (Homo sapiens, UniProt Q9UDY8) (assay: MALT-1 Inhibition Assay).
T1 sequence (Q9UDY8 whole entry): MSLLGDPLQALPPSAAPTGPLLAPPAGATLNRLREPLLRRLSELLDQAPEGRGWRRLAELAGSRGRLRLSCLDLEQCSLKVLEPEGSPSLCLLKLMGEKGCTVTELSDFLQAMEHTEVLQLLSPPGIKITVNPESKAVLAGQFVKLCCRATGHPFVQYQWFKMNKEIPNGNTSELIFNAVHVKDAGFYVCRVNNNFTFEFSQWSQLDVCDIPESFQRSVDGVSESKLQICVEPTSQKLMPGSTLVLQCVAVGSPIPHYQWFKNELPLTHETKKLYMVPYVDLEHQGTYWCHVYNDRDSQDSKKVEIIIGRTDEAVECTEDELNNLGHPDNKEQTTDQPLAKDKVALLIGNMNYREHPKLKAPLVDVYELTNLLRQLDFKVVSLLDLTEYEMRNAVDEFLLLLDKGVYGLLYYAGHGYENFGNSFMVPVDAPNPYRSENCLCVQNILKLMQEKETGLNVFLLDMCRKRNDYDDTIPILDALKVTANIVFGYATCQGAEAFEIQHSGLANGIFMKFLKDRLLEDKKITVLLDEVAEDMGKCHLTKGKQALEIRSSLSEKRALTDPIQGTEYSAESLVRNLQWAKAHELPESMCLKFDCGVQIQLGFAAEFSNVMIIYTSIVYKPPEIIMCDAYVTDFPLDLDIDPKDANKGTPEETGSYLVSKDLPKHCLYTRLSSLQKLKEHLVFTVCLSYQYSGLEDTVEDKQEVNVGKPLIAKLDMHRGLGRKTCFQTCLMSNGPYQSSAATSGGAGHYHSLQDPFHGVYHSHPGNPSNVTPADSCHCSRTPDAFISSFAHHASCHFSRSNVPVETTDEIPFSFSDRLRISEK
Description: MALT-1 paracaspase activity was measured using the fluorogenic substrate Ac-LRSR-Rh110-DP (purchased from Biosantan GmbH). Proteolytic cleavage of the peptide—rhodamine conjugate results in an increase of rhodamine fluorescence which is inhibited by test compounds. Test compounds were diluted in DMSO in a series of 10 semi-log step doses, 15 nL of each compound dose were dispensed in 384 well polypropylene plates (HiBase non-binding, Greiner Bio-One cat #784900). All other assay components were diluted to appropriate working concentrations in assay buffer composed of: 200 mM Tris-HCl (pH 7.5; Sigma-Aldrich cat #T2663-1L), 0.1 mM EGTA (Sigma-Aldrich cat #E3889-10G), 0.05% CHAPS—Sigma-Aldrich cat #C9426-1G), 1 mM TCEP (Sigma-Aldrich cat #646547-10×1 mL), 0.8 M sodium citrate (Sigma-Aldrich cat #S1804-500G). Recombinant human MALT-1 (amino acids 340-824, accession NP_006776.1) was added to compound doses and equilibrated for 40 minutes at rt. The reaction was initiated by addition of substrate. Final concentrations of MALT-1 and substrate were 3 nM and 10 μM respectively. Reactions were incubated in the dark for 60 minutes at 25° C. Fluorescence was measured in a PHERAstar FSX plate reader (BMG LABTECH) with optical setup for excitation at 485 nm and emission at 520 nm, focal height of 11.8 mm, 20 flashes, gain 300. Percent inhibition values were calculated from relative fluorescence units at different doses and fitted to a 4-parameter logistic curve to determine IC50 values.
Work on `C[C@H]1CCN(c2ccc([C@H](N(C)C(=O)[C@H]3CC[S@@](=N)(=O)CC3)C(F)(F)F)cc2)c2cnc3cc(F)nn3c21` (relative stereo) [US20250051327, Reference CPD0074554] yielded an IC50 of 44 nM. `COc1ccc2ncc(Nc3ccc([C@H](N(C)C(=O)C4CCS(=O)(=O)CC4)C(F)(F)F)cc3)c([C@H]3CCOC3)c2n1` [US20250051327, Reference CPD0074039] showed an IC50 of 138 nM. `CO[C@@H](C)c1c(Nc2ccc([C@H](N(C)C(=O)[C@@H]3CCN(C(=O)CO)C3)C(F)(F)F)cc2)cnn2cc(Cl)nc12` (relative stereo) [US20250051327, Reference CPD0084140] showed an IC50 of 45 nM. `CN(C(=O)[C@H]1CS(=O)(=O)CC12COC2)[C@@H](c1ccc(N2CCCc3c2cnc2cc(Cl)nn32)cc1)C(F)(F)F` [US20250051327, Reference CPD0073975] was tested, and the IC50 was 112 nM. `COc1ccc2ncc(Nc3ccc([C@H](N(C)C(=O)[C@H]4CCC(=O)N4)C(F)(F)F)cc3)c([C@H](C)OC)c2n1` (relative stereo) [US20250051327, Reference CPD0075581] was tested, and the IC50 was 37 nM. With `COc1ccc2ncc(Nc3ccc([C@H](N(C)C(=O)[C@H]4CNC(=O)C4)C(F)(F)F)cc3)c([C@@H]3CCOC3)c2n1` (relative stereo) [US20250051327, Reference CPD0082477] the IC50 was 41 nM. `COc1ccc2ncc(Nc3ccc([C@H](N(C)C(=O)[C@@H]4CNC(=O)C4)C(F)(F)F)cc3)c([C@H]3CCOC3)c2n1` (relative stereo) [US20250051327, Reference CPD0084144] showed an IC50 of 76 nM. `CN(C(=O)C1CCS(=O)(=O)CC1)[C@@H](c1ccc(N2CCCc3c2cnc2cc(Cl)nn32)nc1)C(F)(F)F` [US20250051327, Reference CPD0019212] showed an IC50 of 313 nM. In the case of `COc1ccc2ncc(Nc3ccc([C@H](N(C)C(=O)C4CCS(=O)(=O)CC4)C(F)(F)F)cc3)c([C@@H](C)OC)c2n1` (relative stereo) [US20250051327, Reference CPD0019171], the IC50 is reported as 196 nM. For `COc1ccc2ncc(Nc3ccc([C@H](N(C)C(=O)C4CCS(=O)(=O)CC4)C(F)(F)F)cn3)c([C@@H](C)OC)c2n1` (relative stereo) [US20250051327, Reference CPD0019006], the IC50 was 139 nM. Molecule `CO[C@@H](C)c1c(Nc2ccc([C@H](N(C)C(=O)[C@@H]3CCC(=O)N3)C(F)(F)F)cc2)cnn2cc(Cl)nc12` [US20250051327, Reference CPD0082470] has an IC50 of 45 nM.
